In article PMC8752738, “A propolis-derived small molecule ameliorates metabolic syndrome in obese mice by targeting the CREB/CRTC2 transcriptional complex” (Nature Communications, 2022):
Several values for one entry are separate records, joined by “and”; a condition that tells them apart may be missing. Identical values can stand only once.

Tests used:
[1] = system: cAMP in primary hepatocytes; experiment: Measurement of cAMP levels; format: cell-based, mouse; details: for cAMP, mean / cAMP: Gluc; for cAMP, mean: n=4 (Ctrl_Gluc 10.79); for cAMP: Supp. fig.3c, individual replicates
Description: At the end of indicated treatments, primary hepatocytes were collected in lysis buffer. The cAMP contents of cell lysates were then determined using cAMP ELISA kits (R&D) and normalized by total protein content as determined by BCA assay (Thermo).

[2] = system: promoter occupancy in primary hepatocytes; experiment: ChIP assays; format: cell-based, mouse; details: for ChIP: CBP, CRE-PGC1a, mean / ChIP: CBP, CRE-Pck1, mean: N=4
Pharmacokinetic studies = format: in vivo, mouse; details: ICR mice; for half-life: ICR
Description: Male ICR mice (18–20 g, n = 3 in each group) were randomly assigned to treatment groups. After 12-h of fasting, baseline blood was collected into a tube containing ethylenediaminetetraacetic acid (EDTA). Animals were then treated orally with compound A57 or APC (p.o.: 20 mg/kg, in DMSO/0.5% HPMC 5/95, v/v) and intravenous injected the selected compounds (i.v.: 2 mg/kg, in DMSO/EtOH/PEG300/NaCl 5/5/40/50, v/v/v/v). Subsequently, blood samples per mouse were collected at 0.25, 0.5, 1, 2, 4, 8, 24 h for p.o.-treated groups and 0.05, 0.25, 0.75, 2, 4, 6, 8, 24 h for i.v.-treated groups. All samples were centrifuged at 12,000 rpm for 3 min, and the plasma was harvested. Aliquots of plasma samples were stored at −80 °C until analysis. The selected compounds' serum concentrations were determined by liquid chromatography/tandem mass spectrometry (LC–MS–MS). Pharmacokinetic parameters were determined from the selected compounds' serum concentrations by noncompartmental methods using WinNonLin professional version 4.1 (Pharsight Corp., Mountain View, CA).

Fasting blood glucose = format: in vivo, mouse; parameters: Blood glucose of CRTC2KO / blood glucose in CRTC2KO, mean: unit not given here; details: for blood glucose in CRTC2KO, mean / Blood glucose of CRTC2KO: Figure 9e, 20mg/kg; for blood glucose in CRTC2KO, mean: N 6
[3] = system: CREB phosphorylation, CRTC2 dephosphorylation; experiment: Immunoblotting/immunostaining of P-CREB and CRTC2 in primary hepatocytes; format: cell-based, mouse; details: for Relative P-CREB/CREB density: Supp. Fig.10 c, individual replicates
Description: Immunoblotting and immunoprecipitation assays were performed as previously described, with antibodies recognizing CREB, Ser133-P-CREB, AMPK, P-AMPK, AKT, P-AKT (Cell Signaling), PGC-1α (Merck), CRTC2 (Calbiochem), PCK1 (Santa Cruz), SREBP1 (Santa Cruz), SREBP2 (BD), HA (Convance), LXRα (Santa Cruz), FLAG (Sigma), GST (Covance), HIS (Abmart), GAPDH (AOGMA), α-TUBULIN (Abmart), β-ACTIN (Abmart), and other antibodies (Supplementary Table 3). For immunostaining assays, primary cultured hepatocytes seeded on coverslips were fixed with 4% paraformaldehyde for 20 min, permeabilized with 0.3% Triton X-100 in PBS, and then blocked by 5% normal goat serum and 0.3% Triton X-100 in PBS, followed by incubation with anti-CREB (1:1000), anti-P-CREB (1:1000), or anti-HA (1:3000) antibodies for 1 h at 4 °C. Slides were then washed, and after washing, slides were incubated with fluorochrome-conjugated secondary antibodies (Invitrogen). Slides were then washed and mounted with Vectashield mounting media containing 4, 6-diamidino-2-phenylindole (DAPI).

[4] = mean over Gluc0, Gluc30, Gluc60
[5] = primary hepatocytes exposed to glucagon, APC 10 μM
[6] = male, mouse, plasma, iv, i.v. 2 mg/kg
[7] = male, mouse, plasma, po, p.o. 20 mg/kg

In the case of `CC(C)=CCc1cc(C=CC(=O)O)cc(CC=C(C)C)c1O` [APC, 3,5-diprenyl-4-hydroxycinnamic acid], the “cAMP, mean” value ([1]; APC 0.5H) is reported as 11.36 pmol/µg, the “cAMP, mean” value ([1]; APC 1H) is reported as 10.43 pmol/µg and the “cAMP, mean” value ([1]; APC 5H) is reported as 10.31 pmol/µg. The cAMP ([1]; APC 0.5H) was 9.765 pmol/µg and 13.6965 pmol/µg and 13.5803 pmol/µg and 8.4137 pmol/µg, the cAMP ([1]; APC 1H) was 10.9076 pmol/µg and 11.1137 pmol/µg and 11.3636 pmol/µg and 8.343 pmol/µg and the cAMP ([1]; APC 5H) was 11.3502 pmol/µg and 9.481 pmol/µg and 11.2821 pmol/µg and 9.132 pmol/µg. The “cAMP accumulation induced by glucagon” value ([1]; primary hepatocytes) was “did not alter”, the “ChIP CREB in LXRa promoter, Input %” value ([2]; ChIP-CREB, LXRa promoter, individual replicates, n=4) was 48.6099 Input % and 36.4614 Input % and 38.9243 Input % and 32.1584 Input % and the “ChIP CREB in LXRa promoter, group mean (Mean 1)” value ([2]; ChIP-CREB, LXRa promoter, mean of N=4) was 39.04 Input %. The “ChIP CRTC2 in LXRa promoter, Input %” value ([2]; ChIP-CRTC2, LXRa promoter, individual replicates, n=4) was 91.9916 Input % and 76.2395 Input % and 65.9044 Input % and 83.3167 Input %, the “ChIP CRTC2 in LXRa promoter, group mean (Mean 1)” value ([2]; ChIP-CRTC2, LXRa promoter, mean of N=4) was 79.36 Input % and the “ChIP-IgG in LXRa promoter, Input %” value ([2]; ChIP-IgG (control antibody), LXRa promoter, individual replicates, n=4) was 0.8383 Input % and 0.5702 Input % and 0.8279 Input % and 1.761 Input %. For the same compound, the “ChIP-IgG in LXRa promoter, group mean (Mean 1)” value ([2]; ChIP-IgG (control antibody), LXRa promoter, mean of N=4) was 0.9995 Input %, the “ChIP: LXRa recuited in Srebf1 promoter, relative enrichment folds, group mean (Mean 1)” value ([2]; ChIP-LXRa, Srebf1 promoter, mean of N=4) was 0.4914 fold and the “ChIP: RXRa recuited in Srebf1 promoter, relative enrichment folds, group mean (Mean 1)” value ([2]; ChIP-RXRa, Srebf1 promoter, mean of N=4) was 0.5838 fold. For the same compound, the “ChIP: LXRa recuited in Srebf1 promoter, relative enrichment folds” value ([2]; ChIP:LXRa, Srebf1 promoter, individual replicates, n=4) was 0.5482 fold and 0.5209 fold and 0.4024 fold and 0.494 fold, the “ChIP: RXRa recuited in Srebf1 promoter, relative enrichment folds” value ([2]; ChIP:RXRa, Srebf1 promoter, individual replicates, n=4) was 0.4207 fold and 0.6691 fold and 0.5173 fold and 0.7279 fold and the “ChIP: CBP, CRE-PGC1a, mean” value ([2]; Gluc0) was 0.891. For the same compound, the “ChIP: CBP, CRE-Pck1, mean” value ([2]; Gluc0) was 0.921, the “ChIP: CBP, CRE-PGC1a, mean” value ([2]; Gluc30) was 0.574 and the “ChIP: CBP, CRE-Pck1, mean” value ([2]; Gluc30) was 0.749. For the same compound, the “ChIP: CBP, CRE-PGC1a, mean” value ([2]; Gluc60) was 0.582, the “ChIP: CBP, CRE-Pck1, mean” value ([2]; Gluc60) was 0.834 and the “Mean of APC_ChIP: CBP, CRE-G6pc” value [2, 4] was 1.496. The “Mean of ChIP: CBP & APC, CRE-Pck1” value [2, 4] was 0.835, the “Mean of ChIP: CBP & APC, CRE-Pgc-1a” value [2, 4] was 0.682 and the “CRTC2 recruited to CRE sites of G6pc, Pgc-1α and Pck1 promoters (ChIP)” value [2, 5] was “significantly attenuated”. The “occupancy of CREB or CBP at CRE sites (ChIP)” value [2, 5] was “little effect”, the “LXRα and RXRα recruited to LXRE element of Srebf1 promoter (ChIP)” value ([2]; primary hepatocytes, APC 10 μM) was “reduced” and the “occupancy of CRTC2 on half CRE site of Lxrα promoter (ChIP)” value ([2]; primary hepatocytes, glucagon, APC 10 μM) was “attenuated”. The Fpo (Pharmacokinetic studies; p.o. 20 mg/kg vs i.v. 2 mg/kg) was 14.4%, the T1/2 (Pharmacokinetic studies; p.o. 20 mg/kg, 20 mg/kg) was 3.29 h and the half-life (Pharmacokinetic studies; male, mouse, plasma, iv, 2 mg/kg, i.v. 2 mg/kg) was 5.89 h. The half-life (Pharmacokinetic studies; male, mouse, plasma, po, 20 mg/kg, p.o. 20 mg/kg) was 2.11 h, the AUC(0-t) (Pharmacokinetic studies; [6]) was 428 ng·h/mL and the MRT (Pharmacokinetic studies; [6]) was 2.46 h. The clearance (Pharmacokinetic studies; [6]) was 78 mL/min/kg, the AUC(0-t) (Pharmacokinetic studies; [7]) was 616 ng·h/mL and the Cmax (Pharmacokinetic studies; [7]) was 510 ng/mL. The MRT (Pharmacokinetic studies; [7]) was 4.33 h, the Tmax (Pharmacokinetic studies; [7]) was 0.25 h and the “fasting blood glucose levels” value (Fasting blood glucose; DIO and db/db mice, i.p. 20 mg/kg) was “remarkably decreased”. The “blood glucose in CRTC2KO, mean” value (Fasting blood glucose; CRTC2KO mice, group mean) was 3.317, the “Blood glucose of CRTC2KO” value (Fasting blood glucose; CRTC2KO mice, single animals) was 3.3 (2×) and 3.8 and 2.6 and 3.1 and the “blood glucose in CRTC2KO, mean” value (Fasting blood glucose; WT mice, group mean) was 3.65. For the same compound, the “Blood glucose of CRTC2KO” value (Fasting blood glucose; WT mice, single animals) was 2.1 and 3.3 and 3.2 (3×) and 4, the “FBG in db/db, mean” value (Fasting blood glucose; Figure 9f, db/db, group mean, n 5) was 19.96 mM and the “Fasting blood glucose” value (Fasting blood glucose; Figure 9f, db/db, single animals) was 13 mM and 22 mM and 26.3 mM and 18.9 mM and 19.6 mM. The “Fasting blood glucose, mean of column B” value (Fasting blood glucose; Figure 8d, group mean, n=6, VEH mean 137.4) was 91.6 mg/dL, the Fasting blood glucose (Fasting blood glucose; Figure 8d, individual mice) was 79.2 mg/dL and 84.6 mg/dL and 110.4 mg/dL and 95.4 mg/dL and 102.6 mg/dL and 77.4 mg/dL and the “fasting blood glucose levels” value (Fasting blood glucose; db/db mice, one oral delivery 5 mg/kg) was “little effect”. The “fasting blood glucose in db/db mice, mean” value (Fasting blood glucose; group mean, n=6) was 109.4 mg/dL, the “effect on fasting blood glucose in Crtc2KO mice” value (Fasting blood glucose; high-fat diet, oral 20 mg/kg daily, 3 days) was “abolished” and the “fasting blood glucose in db/db mice” value (Fasting blood glucose; individual mouse) was 141.4 mg/dL and 95.6 mg/dL and 108 mg/dL and 121.6 mg/dL and 83.4 mg/dL and 106.2 mg/dL. For the same compound, the “Relative P-CREB/CREB density” value ([3]; CT (no glucagon), CTRL about 1.0) was 1.21 and 1.302 and 1.2292, the “Relative P-CREB/CREB density” value ([3]; GLUC (glucagon), CTRL about 2.91) was 3.03 and 2.994 and 2.993 and the “CREB phosphorylation induced by glucagon” value ([3]; primary hepatocytes) was “very little effect”. For the same compound, the “CRTC2 dephosphorylation or nuclear translocation” value ([3]; primary hepatocytes, APC 10 μM, glucagon) was “very little effect”.
